Data taken from PubChem BioAssay AID1918939 (Molecular Pharmacology Branch, DTP, NCI, 2023).

System: 653999-131-R-J2-PDC complex spheroid viability
Experiment: Anticancer human tumor 653999-131-R-J2-PDC patient-derived lung adenocarcinoma cell line growth inhibition
Details: for IC50: curve of first compound; for viability, T/C: stronger effect = lower value
Summary of the method: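 Drug combinations with the LSD1 inhibitor iadademstat tested on tumor cells co-cultured as spheroids with endothelial cells and mesenchymal stem cells. Concentrations descended in half-log increments from clinical Cmax or 10 microM.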
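Further: spheroids exposed to agents for seven days before readout.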

For `COc1cc(Nc2ncc3c(n2)-c2ccc(Cl)cc2C(c2c(F)cccc2OC)=NC3)ccc1C(=O)O` + NC1CCC(NC2CC2c2ccccc2)CC1, the IC50 (second compound 0.1 µM) was > 1000 nM, the IC50 (second compound 0.316 µM) was > 1000 nM and the IC50 (second compound 1 µM) was > 1000 nM. For the same compound, the IC50 (second compound 3.16 µM) was > 1000 nM, the IC50 (second compound 10 µM) was > 1000 nM and the viability, T/C (second compound 0.1 µM, first compound 0.00316 µM) was 78.7%. It also gave a viability, T/C (second compound 0.1 µM, first compound 0.01 µM) of 89.2%, a viability, T/C (second compound 0.1 µM, first compound 0.0316 µM) of 74.2% and a viability, T/C (second compound 0.1 µM, first compound 0.1 µM) of 78.5%. It also gave a viability, T/C (second compound 0.1 µM, first compound 0.316 µM) of 73.7%, a viability, T/C (second compound 0.1 µM, first compound 1 µM) of 76.1% and a viability, T/C (second compound 0.316 µM, first compound 0.00316 µM) of 85.4%. The viability, T/C (second compound 0.316 µM, first compound 0.01 µM) was 72.8%, the viability, T/C (second compound 0.316 µM, first compound 0.0316 µM) was 63.9% and the viability, T/C (second compound 0.316 µM, first compound 0.1 µM) was 68.1%. For the same compound, the viability, T/C (second compound 0.316 µM, first compound 0.316 µM) was 71.3%, the viability, T/C (second compound 0.316 µM, first compound 1 µM) was 75.6% and the viability, T/C (second compound 1 µM, first compound 0.00316 µM) was 76.6%. For the same compound, the viability, T/C (second compound 1 µM, first compound 0.01 µM) was 84.3%, the viability, T/C (second compound 1 µM, first compound 0.0316 µM) was 78.6% and the viability, T/C (second compound 1 µM, first compound 0.1 µM) was 69.2%. The viability, T/C (second compound 1 µM, first compound 0.316 µM) was 61.9%, the viability, T/C (second compound 1 µM, first compound 1 µM) was 74.9% and the viability, T/C (second compound 3.16 µM, first compound 0.00316 µM) was 92.2%. For the same compound, the viability, T/C (second compound 3.16 µM, first compound 0.01 µM) was 73.9%, the viability, T/C (second compound 3.16 µM, first compound 0.0316 µM) was 79.2% and the viability, T/C (second compound 3.16 µM, first compound 0.1 µM) was 65.6%. It also gave a viability, T/C (second compound 3.16 µM, first compound 0.316 µM) of 79.7%, a viability, T/C (second compound 3.16 µM, first compound 1 µM) of 72% and a viability, T/C (second compound 10 µM, first compound 0.00316 µM) of 92.9%. The viability, T/C (second compound 10 µM, first compound 0.01 µM) was 81.4%, the viability, T/C (second compound 10 µM, first compound 0.0316 µM) was 71.7% and the viability, T/C (second compound 10 µM, first compound 0.1 µM) was 71.2%. It also gave a viability, T/C (second compound 10 µM, first compound 0.316 µM) of 60.9% and a viability, T/C (second compound 10 µM, first compound 1 µM) of 79.7%.
